In the NIST ThermoML archive (doi:10.1021/acs.jced.5b00980):

Conditions: for mass density: 101.33 kPa, Liquid, Vibrating tube method

CCCC[P+](CC)(CCCC)CCCC.CCOP(=O)([O-])OCC [tributylethylphosphonium diethylphosphate]
Conditions	mass density [kg/m3]
298.15 K	996.1
303.15 K	992.58
308.15 K	989.06
313.15 K	985.55
318.15 K	982.04
323.15 K	978.53
328.15 K	975.03
333.15 K	971.53
338.15 K	968.03
343.15 K	964.53
348.15 K	961.01
353.15 K	957.5
358.15 K	954
363.15 K	950.49
368.15 K	946.98

Conditions	Glass transition temperature [°C]
Glass, DSC	-71.34
